Assay results from ChEMBL document CHEMBL1145561, “Pyrrolo[1,2-b]pyridazin-2-ones as potent inhibitors of HCV NS5B polymerase” (Bioorg Med Chem Lett, 2008).

test system: Cynomolgus monkey; assay: AUC (infinity) in cynomolgus monkey at 1 mg/kg, po; format: ADME, organism-based, Macaca fascicularis, Plasma; design: time infinity, dose 1 mg/kg, route oral; conditions: in vivo

| AUC [ng·h/mL] | Structure (SMILES) |
| --- | --- |
| 30 | CC(C)CCn1nc(-c2cccs2)c(O)c(C2=Nc3ccc(NS(C)(=O)=O)cc3S(=O)(=O)N2)c1=O |
| 6 | CS(=O)(=O)Nc1ccc2c(c1)S(=O)(=O)N=C(c1c(O)c3cccn3n(Cc3ccc(F)cc3)c1=O)N2 |
| 79 | CC(C)CCn1c(=O)c(C2=NS(=O)(=O)c3cc(N(C)S(C)(=O)=O)ccc3N2)c(O)c2cccn21 |
| 25 | CC(C)(C)CCn1c(=O)c(C2=NS(=O)(=O)c3cc(NS(C)(=O)=O)ccc3N2)c(O)c2cccn21 |

test system: not listed separately; assay: Metabolic stability in cynomolgus monkey liver microsomes assessed as remains after 60 mins at 1 uM; format: ADME, Macaca fascicularis, Microsome; conditions: read-out: Stability

| remaining at 1 h, 1 µM [%] | Structure (SMILES) |
| --- | --- |
| 90 | CS(=O)(=O)Nc1ccc2c(c1)S(=O)(=O)N=C(c1c(O)c3cccn3n(Cc3ccc(F)cc3)c1=O)N2 |

test system: not listed separately; assay: Oral bioavailability in cynomolgus monkey at 1 mg/kg; format: ADME, organism-based, Macaca fascicularis; conditions: in vivo

| bioavailability [%] | Structure (SMILES) |
| --- | --- |
| 2 | CC(C)CCn1nc(-c2cccs2)c(O)c(C2=Nc3ccc(NS(C)(=O)=O)cc3S(=O)(=O)N2)c1=O |
| 1 | CS(=O)(=O)Nc1ccc2c(c1)S(=O)(=O)N=C(c1c(O)c3cccn3n(Cc3ccc(F)cc3)c1=O)N2 |
| 7 | CC(C)CCn1c(=O)c(C2=NS(=O)(=O)c3cc(N(C)S(C)(=O)=O)ccc3N2)c(O)c2cccn21 |
| 2 | CC(C)(C)CCn1c(=O)c(C2=NS(=O)(=O)c3cc(NS(C)(=O)=O)ccc3N2)c(O)c2cccn21 |

test system: not listed separately; assay: Metabolic stability in cynomolgus monkey liver microsomes assessed as half life at 1 uM; format: ADME, Macaca fascicularis, Microsome; conditions: not given

| half-life at 1 µM [min] | Structure (SMILES) |
| --- | --- |
| > 60 | CS(=O)(=O)Nc1ccc2c(c1)S(=O)(=O)N=C(c1c(O)c3cccn3n(Cc3ccc(F)cc3)c1=O)N2 |
| 60 | CC(C)CCn1c(=O)c(C2=NS(=O)(=O)c3cc(N(C)S(C)(=O)=O)ccc3N2)c(O)c2cccn21 |
| 14 | CC(C)(C)CCn1c(=O)c(C2=NS(=O)(=O)c3cc(NS(C)(=O)=O)ccc3N2)c(O)c2cccn21 |

test system: not listed separately; assay: Metabolic stability in human liver microsomes assessed as half life at 5 uM; format: ADME, Microsome; conditions: liver microsomes

| half-life at 5 µM [min] | Structure (SMILES) |
| --- | --- |
| > 60 | CS(=O)(=O)Nc1ccc2c(c1)S(=O)(=O)N=C(c1c(O)c3cccn3n(Cc3ccc(F)cc3)c1=O)N2 |
| > 60 | CC(C)CCn1c(=O)c(C2=NS(=O)(=O)c3cc(N(C)S(C)(=O)=O)ccc3N2)c(O)c2cccn21 |
| 10 | CC(C)(C)CCn1c(=O)c(C2=NS(=O)(=O)c3cc(NS(C)(=O)=O)ccc3N2)c(O)c2cccn21 |

test system: Hepatitis C virus; assay: Antiviral activity against HCV 1b in human Huh7/C24 cells after 72 hrs by replicon cell assay; format: functional, organism-based, Hepacivirus hominis; conditions: genotype 1b, Huh-7, 72 h

| EC50 [nM] | Structure (SMILES) |
| --- | --- |
| 190 | CC(C)CCn1c(=O)c(C2=NS(=O)(=O)c3cc(N(C)S(C)(=O)=O)ccc3N2)c(O)c2cccn21 |
| 5 | CC(C)(C)CCn1c(=O)c(C2=NS(=O)(=O)c3cc(NS(C)(=O)=O)ccc3N2)c(O)c2cccn21 |

test system: Cynomolgus monkey; assay: AUC (infinity) in cynomolgus monkey at 1 mg/kg, iv; format: ADME, organism-based, Macaca fascicularis, Plasma; design: time infinity, dose 1 mg/kg, route intravenous; conditions: in vivo

| AUC [ng·h/mL] | Structure (SMILES) |
| --- | --- |
| 1330 | CC(C)CCn1nc(-c2cccs2)c(O)c(C2=Nc3ccc(NS(C)(=O)=O)cc3S(=O)(=O)N2)c1=O |
| 539 | CS(=O)(=O)Nc1ccc2c(c1)S(=O)(=O)N=C(c1c(O)c3cccn3n(Cc3ccc(F)cc3)c1=O)N2 |
| 1060 | CC(C)CCn1c(=O)c(C2=NS(=O)(=O)c3cc(N(C)S(C)(=O)=O)ccc3N2)c(O)c2cccn21 |
| 1210 | CC(C)(C)CCn1c(=O)c(C2=NS(=O)(=O)c3cc(NS(C)(=O)=O)ccc3N2)c(O)c2cccn21 |

test system: not listed separately; assay: Apparent permeability from apical to basolateral side in human Caco-2 cells at 10 uM; format: ADME, cell-based; conditions: not given

| Papp A→B at 10 µM [×10⁻⁶ cm/s] | Structure (SMILES) |
| --- | --- |
| 0.03 | CC(C)CCn1nc(-c2cccs2)c(O)c(C2=Nc3ccc(NS(C)(=O)=O)cc3S(=O)(=O)N2)c1=O |
| 0.1 | CS(=O)(=O)Nc1ccc2c(c1)S(=O)(=O)N=C(c1c(O)c3cccn3n(Cc3ccc(F)cc3)c1=O)N2 |
| 4.3 | CC(C)CCn1c(=O)c(C2=NS(=O)(=O)c3cc(N(C)S(C)(=O)=O)ccc3N2)c(O)c2cccn21 |
| 0.7 | CC(C)(C)CCn1c(=O)c(C2=NS(=O)(=O)c3cc(NS(C)(=O)=O)ccc3N2)c(O)c2cccn21 |

test system: not listed separately; assay: Clearance in cynomolgus monkey at 1 mg/kg, iv; format: ADME, organism-based, Macaca fascicularis; design: dose 1 mg/kg, route intravenous; conditions: in vivo

| clearance [mL/min/kg] | Structure (SMILES) |
| --- | --- |
| 31 | CS(=O)(=O)Nc1ccc2c(c1)S(=O)(=O)N=C(c1c(O)c3cccn3n(Cc3ccc(F)cc3)c1=O)N2 |
| 16 | CC(C)CCn1c(=O)c(C2=NS(=O)(=O)c3cc(N(C)S(C)(=O)=O)ccc3N2)c(O)c2cccn21 |
| 14 | CC(C)(C)CCn1c(=O)c(C2=NS(=O)(=O)c3cc(NS(C)(=O)=O)ccc3N2)c(O)c2cccn21 |

test system: not listed separately; assay: Cytotoxicity against human Huh7/C24 cells after 72 hrs; format: cell-based, Huh-7; conditions: not given

| Structure (SMILES) | CC50 at 72 h [nM] |
| --- | --- |
| CS(=O)(=O)Nc1ccc2c(c1)S(=O)(=O)N=C(c1c(O)c3cccn3n(Cc3ccc(F)cc3)c1=O)N2 | > 1000 |
| CC(C)CCn1c(=O)c(C2=NS(=O)(=O)c3cc(N(C)S(C)(=O)=O)ccc3N2)c(O)c2cccn21 | > 33000 |
| CC(C)(C)CCn1c(=O)c(C2=NS(=O)(=O)c3cc(NS(C)(=O)=O)ccc3N2)c(O)c2cccn21 | > 1000 |

test system: Hepatitis C virus; assay: Inhibition of HCV 1b NS5B RNA polymerase; design: species or system Hepatitis C virus subtype 1b; conditions: not given

| IC50 [nM] | Structure (SMILES) |
| --- | --- |
| < 10 | CS(=O)(=O)Nc1ccc2c(c1)S(=O)(=O)N=C(c1c(O)c3cccn3n(Cc3ccc(F)cc3)c1=O)N2 |
| 110 | CC(C)CCn1c(=O)c(C2=NS(=O)(=O)c3cc(N(C)S(C)(=O)=O)ccc3N2)c(O)c2cccn21 |
| < 10 | CC(C)(C)CCn1c(=O)c(C2=NS(=O)(=O)c3cc(NS(C)(=O)=O)ccc3N2)c(O)c2cccn21 |

test system: not listed separately; assay: Metabolic stability in human liver microsomes assessed as remains after 60 mins at 5 uM; format: ADME, Microsome; conditions: read-out: Stability

| remaining at 1 h, 5 µM [%] | Structure (SMILES) |
| --- | --- |
| 86 | CS(=O)(=O)Nc1ccc2c(c1)S(=O)(=O)N=C(c1c(O)c3cccn3n(Cc3ccc(F)cc3)c1=O)N2 |
| 55 | CC(C)CCn1c(=O)c(C2=NS(=O)(=O)c3cc(N(C)S(C)(=O)=O)ccc3N2)c(O)c2cccn21 |

test system: not listed separately; assay: Solubility at pH 7.5; format: physicochemical; conditions: buffer

| solubility [µM] | Structure (SMILES) |
| --- | --- |
| > 100 | CC(C)CCn1nc(-c2cccs2)c(O)c(C2=Nc3ccc(NS(C)(=O)=O)cc3S(=O)(=O)N2)c1=O |
| > 100 | CS(=O)(=O)Nc1ccc2c(c1)S(=O)(=O)N=C(c1c(O)c3cccn3n(Cc3ccc(F)cc3)c1=O)N2 |
| > 100 | CC(C)CCn1c(=O)c(C2=NS(=O)(=O)c3cc(N(C)S(C)(=O)=O)ccc3N2)c(O)c2cccn21 |
| > 100 | CC(C)(C)CCn1c(=O)c(C2=NS(=O)(=O)c3cc(NS(C)(=O)=O)ccc3N2)c(O)c2cccn21 |
